# Structures can show the parent of a compound that is named as a salt. Where two headings read alike, the source gives them in different places.
# Columns and labels:
# ip L1210 leukemia = experiment: ip-implanted L1210 leukemia in mice;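 on all read-outs here: each mouse received 10^6 L1210 cells intraperitoneally, with drug treatment also given by the i.p. route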; details: for In Vivo Antitumor Activity ILS (increase in lifespan): ip L1210 (10^6 cells), drug i.p. Days 1 and 5 at maximally tolerated dose; for Increase in Lifespan (ILS) or Inhibition of Tumor Growth (TGI): ip L1210 Leukemia, optimal doses and optimal schedules
# Method: (§2) For in vivo studies L1210 cells were implanted i.p. (10^6 per mouse)
# (§3) and drugs were administered i.p. on Days 1 and 5. Increase in lifespan
# (§4) (ILS) was based on median survival time of groups of 6 mice treated at th
# maximally tolerated dose of the drugs.
# [1] = ip-implanted L1210 leukemia in mice; details: mouse, in vivo, ip;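 further: each mouse received 10^6 L1210 cells intraperitoneally, with drug treatment also given by the i.p. route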
# Method: as §2, §3, §4
# maximally tolerated dose of the drugs.
# L1210 leukemia cells = experiment: cells; assay type: cell-based, mouse
# Method: Cells were exposed continuously upon cloning into medium containing 0.2 percent Noble agar. After incubation at 37° C. in a CO2 incubator for 3 days, colonies were stained with viable cell specific formazan stain and, 24 hours later, were enumerated by a colony counter (Biotran II, New Brunswick Scientific Co., Edison, N.J.) adjusted to identify colonies of more than 50 cells. The concentration which reduced cloning efficiency by 50 percent IC50) was determined by interpolation.
# iv P388 leukemia = details: iv P388 Leukemia; optimal doses and optimal schedules
# Description: Tumors used in these studies P388 leukemia, L1210 leukemia and Lewis lung carcinoma--are maintained by serial transplantation in syngeneic strains of mice, DBA/2 for the leukemias and C57B1/6 for Lewis lung carcinoma. The leukemias are serially transplanted i.p. as ascites cell suspensions while the Lewis lung carcinoma is serially transplanted as a s.c. solid tumor.
# For therapeutic trials, tumors were aseptically removed from donor mice and prepared as suspensions for implantation into test animals which for each tumor are syngeneic female F1 hybrid B6D2F1 mice (C57B1/6×DBA/2). The inoculum level varies with the type of tumor: P388 leukemia is inoculated at 10^6 cells per mouse, L1210 leukemia at 10^5 or 10^6 cells per mouse, and Lewis lung carcinoma at 0.25 ml of a 10 percent (w:v) brei. […] After tumor inoculation, mice are randomized to treatment groups of 6 to 8 mice each. In each experiment, there are three groups of untreated control mice.
# Drugs are dissolved or suspended in appropriate aqueous vehicles and given i.p. or i.v. on various treatment schedules over a range of dosage levels. Animals are housed in shoebox cages and monitored daily for mortality for 30 (L1210), 45 (P388) or 60 (Lewis lung) days.
# [2] = system: ip B16 melanoma/F10 subline; details: ip B16 Melanoma/F10 Subline; optimal doses and optimal schedules
# Description: (§5) Tumors used in these studies--P388 leukemia and its doxorbicin--and mitoxanrone-resistant sublines, L1210 leukemia, B16 melanoma, B16 melanoma/F10 subline, M5076 sarcoma and colon carcinoma 26--are maintained by serial transplantation in syngeneic strains of mice. For the leukemias, these tumors are maintained in DBA/2 mice. The M5076 sarcoma, the B16 melanoma and its F10 subline are maintained in C57B1/6 mice and the colon sarcinoma 26 is maintained in BALB/c mice. The leukemias and the M5076 sarcoma are serially transplanted i.p. as ascites cell suspensions while the B16 melanoma lines and the colon carcinoma 26 are serially transplanted as s.c. solid tumors.
# (§6) For therapeutic trials, tumors are aseptically removed from donor mice and prepared as suspensions for implantation ip into test animals. The test animals for the colon carcinoma 26 are female BALB/c mice (20-25 gm). The test animals for the other tumor models are syngeneic female F1 hybrid B6D2F1 mice (C57B1/6 x DBA/2). The inoculum level varies with the type of tumor: P388 leukemia is inoculated at 10^6 cells per mouse, L1210 leukemia at 10^5 or 10^6 cells per mouse, M5076 sarcoma at 5×10^6 cells per mouse. For implantation of the B16 melanoma lines and the colon carcinoma 26, s.c. tumors from donor mice are minced and homogenized in loose fitting teflon glass homogenizer to give a tumor brei. The inoculum levels are 0.5 ml of a 10 percent (w:v) brei of the B16 melanoma lines and 0.5 ml of a 5 percent (w:v) brei of colon carcinoma 26. After tumor inoculation, mice randomized to treatment groups comprised of 6-8 mice each. In each experiment, there are three groups of untreated control mice. Drugs are dissolved or suspended in appropriate aqueous vehicles and given by a variety of routes and schedules of administration over a range of dose levels. Animals are housed in shoebox cages and are monitored daily for mortality for 30 (L1210), 45 (P388) or 60 (B16, M5076, colon 26) days.
# ip P388 leukemia = details: ip P388 Leukemia; optimal doses and optimal schedules
# Method: Increase in lifespan (ILS) is based on median survival time of groups of 6 mice. Net tumor cell kill (NCK) is calculated from median survival time by standard methods, since survival time is a linear function of the log tumor cell burden.
# Animals were implanted ip with 10^6 cells. Increase in lifespan (ILS) is based on median survival time of groups of 6 mice relative to untreated controls. Long-term survivors were tumor-free on Day 45.
# as §5, §6
# sc M5076 sarcoma = experiment: sc-implanted M5076 sarcoma in mice; assay type: in vivo, mouse; details: sc M5076 Sarcoma; optimal doses and optimal schedules
# Description: (§1) The inoculum varies with the tumor.
# ip colon carcinoma 26 = experiment: ip-implanted colon carcinoma 26 in mice; assay type: in vivo, mouse; details: ip Colon Carcinoma 26; optimal doses and optimal schedules
# Description: as §5, §6
# ip B16 melanoma = details: ip B16 Melanoma; optimal doses and optimal schedules
# Description: as §5, §6
# [3] = system: sc Madison lung carcinoma; experiment: sc-implanted Madison lung carcinoma in mice; assay type: in vivo, mouse; details: sc Madison Lung Carcinoma; optimal doses and optimal schedules
# Description: as §1
# [4] = system: sc B16 melanoma/F10 subline; experiment: sc-implanted B16 melanoma/F10 subline in mice; assay type: in vivo, mouse; details: sc B16 Melanoma/F10 Subline; optimal doses and optimal schedules
# Description: as §1
# Aqueous solubility = assay type: physicochemical
# iv L1210 leukemia = details: iv L1210 Leukemia; optimal doses and optimal schedules
# sc ADJ-PC6 plasmacytoma = experiment: sc-implanted ADJ-PC6 plasmacytoma in mice; assay type: in vivo, mouse; details: sc ADJ-PC6 Plasmacytoma; optimal doses and optimal schedules
# Method: (§7) Inhibition of tumor growth (TGI) is based on mean tumor volume of groups of 7 or 8 mice relative to untreated controls. Tumors were measured between Days 12 and 19 (except Day 24 for Colon 51 and Day 31 for Colon 38).
# (§8) Tumors used in these studies are maintained by serial transplantation in syngeneic strains of mice C57BL/6 for Lewis lung carcinoma, B16 melanoma and its F10 subline, M5076 sarcoma and colon adenocarcinoma 38; BALB/c for colon carcinoma 26, ADJ-PC6 plasmacytoma Madison lung carcinoma and colon adenocarcinoma 51, C3H for mammary adenocarcinoma 16/c. With the exception of the M5076 sarcoma, which is maintained as a i.p ascites cell suspension, all of the tumors were serially transplanted as s.c. solid tumors.
# (§9) For therapeutic trials, tumors were aseptically removed from donor mice and prepared for implantation s.c. into test animals. The test animals for Lewis lung carcinoma, B16 melanoma and its F10 subline, M5076 sarcoma and colon adenocarcinoma 38 are syngeneic female F1 hybrid B6D2F mice (C57B1/6×DBA/2). ADJ-PC6 plasmacytoma and colon carcinoma 26 are evaluated in female BALB/c mice. Madison lung carcinoma and colon adenocarcinoma 51 are evaluated in syngeneic female F1 hybrid CD2F1 mice (BALB/c×DBA/2). Mammary adenocarcinoma 16/c is evaluated in female C3H mice. The inoculum varies with the tumor. Colon adenocarcinomas 38 is implanted as 2 mm fragments by trochar. M5076 sarcoma and ADJ-PC6 plasmacytoma are implanted as cell suspensions at 5×10^6 and 2×10^6 cells per mouse, respectively. Colon carcinoma 26, colon adenocarcinoma 51, Lewis lung carcinoma, Madison lung carcinoma and B16 melanoma and its F10 subline are implanted as tumor breis prepared as described above in a volume of 0.5 ml. The brei concentration was 10 percent (w:v) except for colon carcinoma 26 for which the brei concentration was 5 percent (w:v). After tumor inoculation, mice are randomized to treatment groups of 7 or 8 mice. In each experiment, there are three groups of untreated control mice.
# (§10) Drugs are dissolved or suspended in appropriate aqueous vehicles and given by a variety of routes of administration and treatment schedules over a range of dosage levels. Animals are housed in shoebox cages and are monitored daily for mortality. […] Time for tumor measurement is dependent on the different rates of tumor growth of the different tumors: the most rapidly growing tumors such as the Lewis and Madison lung tumors, B16 melanoma and its F10 subline were measured between Days 12 and 16. The slower growing tumors were measured at later time points--17 days for M5076 sarcoma, 16 or 19 days for mammary adenocarcinoma 16/c, 19 days for ADJ-PC6 plasmacytoma and colon carcinoma 26, 24 days for colon adenocarcinoma 51, and 31 days for colon adenocarcinoma 38.
# [5] = system: sc mammary adenocarcinoma 16/c; experiment: in vivo; design: species or system mouse; details: sc Mammary Adenocarcinoma 16/c; optimal doses and optimal schedules
# Description: as §1
# sc Lewis lung carcinoma = assay type: in vivo, mouse; details: sc Lewis Lung Carcinoma; optimal doses and optimal schedules
# Description: as §1
# sc colon carcinoma 26 = experiment: sc-implanted colon carcinoma 26 in mice; assay type: in vivo, mouse; details: sc Colon Carcinoma 26; optimal doses and optimal schedules
# Description: as §1
# ip M5076 sarcoma = experiment: ip-implanted M5076 sarcoma in mice; assay type: in vivo, mouse; details: ip M5076 Sarcoma; optimal doses and optimal schedules
# Description: as §5, §6
# [6] = reported by Wani et al., J. Med. Chem., 30, 1774 (1987); cited from earlier work
# sc B16 melanoma = details: sc B16 Melanoma; optimal doses and optimal schedules
# Description: Inhibition of tumor growth (TGI) is based on mean tumor volume of groups of 7 or 8 mice relative to untreated controls.
# as §8, §9, §10
# For highly metastatic tumors including: Lewis and Madison lung tumors, colon carcinoma 26 and B16 melanoma and its F10 subline, tumor-bearing mice are monitored for survival time as well. For the less mestastatic tumor models, tumor-bearing mice are killed following tumor measurement. In this setting, an increase in lifespan of ≥30 percent is considered to be evidence of drug activity.
# [7] = system: sc colon adenocarcinoma 38; details: sc Colon Adenocarcinoma 38; optimal doses and optimal schedules
# Method: as §7, §8, §9, §10
# [8] = system: sc colon adenocarcinoma 51; assay type: in vivo, mouse; details: sc Colon Adenocarcinoma 51; optimal doses and optimal schedules
# Description: as §1
# [9] = Mus musculus, L1210, read-out: In Vitro Activity IC50
smiles,measurement,setting,value
CC[C@@]1(O)C(=O)OCc2c1cc1n(c2=O)Cc2cc3c(CN(C)c4ccccc4)c(O)ccc3nc2-1 [9S],In Vivo Antitumor Activity ILS (increase in lifespan),ip L1210 leukemia,112%
same,MTD,[1],42 mg/kg
same,IC50,L1210 leukemia cells; [9],69 nM
"CC[C@@]1(O)C(=O)OCc2c1cc1n(c2=O)Cc2cc3cc(O)ccc3nc2-1 [10-Hydroxycamptothecin, (20 S) 10-Hydroxycamptothecin, reference compound]",Increase in Lifespan (ILS) or Inhibition of Tumor Growth (TGI),iv P388 leukemia,40 % ILS
same,Increase in Lifespan (ILS) or Inhibition of Tumor Growth (TGI),[2],100 % ILS
same,Increase in Lifespan (ILS) or Inhibition of Tumor Growth (TGI),ip P388 leukemia,Curative
same,Increase in Lifespan (ILS) or Inhibition of Tumor Growth (TGI),sc M5076 sarcoma,66 % TGI
same,Increase in Lifespan (ILS) or Inhibition of Tumor Growth (TGI),ip colon carcinoma 26,Curative
same,In Vivo Antitumor Activity ILS (increase in lifespan),ip L1210 leukemia,94%
same,Increase in Lifespan (ILS) or Inhibition of Tumor Growth (TGI),ip L1210 leukemia,94 % ILS
same,MTD,[1],9 mg/kg
same,Increase in Lifespan (ILS) or Inhibition of Tumor Growth (TGI),ip B16 melanoma,95 % ILS
same,Increase in Lifespan (ILS) or Inhibition of Tumor Growth (TGI),[3],33 % TGI
same,Increase in Lifespan (ILS) or Inhibition of Tumor Growth (TGI),[4],58 % TGI
same,solubility in water / aqueous vehicles,Aqueous solubility,insolubility in aqueous vehicles
same,Increase in Lifespan (ILS) or Inhibition of Tumor Growth (TGI),iv L1210 leukemia,100 % ILS
same,Increase in Lifespan (ILS) or Inhibition of Tumor Growth (TGI),sc ADJ-PC6 plasmacytoma,76 % TGI
same,Increase in Lifespan (ILS) or Inhibition of Tumor Growth (TGI),[5],61 % TGI
same,Increase in Lifespan (ILS) or Inhibition of Tumor Growth (TGI),sc Lewis lung carcinoma,4 % TGI
same,Increase in Lifespan (ILS) or Inhibition of Tumor Growth (TGI),sc colon carcinoma 26,37 % TGI
same,IC50,"L1210 leukemia cells; L1210 suspension culture, continuous exposure, cloning into soft agar, read-out: In Vitro Activity IC50",18 nM
same,Increase in Lifespan (ILS) or Inhibition of Tumor Growth (TGI),ip M5076 sarcoma,98 % ILS
"CCOCc1c(O)ccc2nc3c(cc12)Cn1c-3cc2c(c1=O)COC(=O)[C@]2(O)CC [10S, (20 S) 9-Ethoxymethyl-10-hydroxycamptothecin]",In Vivo Antitumor Activity ILS (increase in lifespan),ip L1210 leukemia,131%
same,MTD,[1],25 mg/kg
same,IC50,L1210 leukemia cells; [9],48 nM
CCC1(O)C(=O)OCc2c1cc1n(c2=O)Cc2cc3ccc(N)cc3nc2-1 (stereo not drawn) [11-amino],activity in an assay for antitumor activity,[6],active
CCC1(O)C(=O)OCc2c1cc1n(c2=O)Cc2cc3ccc(CN)cc3nc2-1 (stereo not drawn) [11-aminomethyl analog],activity in an assay for antitumor activity,[6],inactive
CCC1(O)C(=O)OCc2c1cc1n(c2=O)Cc2cc3ccc(C#N)cc3nc2-1 (stereo not drawn) [11-cyano],activity in an assay for antitumor activity,[6],active
CCC1(O)C(=O)OCc2c1cc1n(c2=O)Cc2cc3ccc([N+](=O)[O-])cc3nc2-1 (stereo not drawn) [11-nitro],activity in an assay for antitumor activity,[6],active
CC[C@@]1(O)C(=O)OCc2c1cc1n(c2=O)Cc2cc3c(CNC4CCCCC4)c(O)ccc3nc2-1 [11S],In Vivo Antitumor Activity ILS (increase in lifespan),ip L1210 leukemia,> 200%
same,MTD,[1],25 mg/kg
same,IC50,L1210 leukemia cells; [9],56 nM
"CC[C@@]1(O)C(=O)OCc2c1cc1n(c2=O)Cc2cc3c(CNCCN(C)C)c(O)ccc3nc2-1 [12S, (20 S) 9-N,N-Dimethylaminoethylaminomethyl-10-hydroxycamptothecin Dihydrochloride Salt]",In Vivo Antitumor Activity ILS (increase in lifespan),ip L1210 leukemia,94%
same,MTD,[1],> 42 mg/kg
same,IC50,L1210 leukemia cells; [9],49 nM
"CC[C@@]1(O)C(=O)OCc2c1cc1n(c2=O)Cc2cc3c(CSCCN(C)C)c(O)ccc3nc2-1 [14S, (20 S) 9-N,N-Dimethylaminoethylthiomethyl-10-hydroxycamptothecin Hydrochloride Salt]",In Vivo Antitumor Activity ILS (increase in lifespan),ip L1210 leukemia,112%
same,MTD,[1],42 mg/kg
same,IC50,L1210 leukemia cells; [9],12 nM
"CC[C@@]1(O)C(=O)OCc2c1cc1n(c2=O)Cc2cc3c(CN(C)C)cccc3nc2-1 [15S, (20S) 9-Dimethylaminomethylcamptothecin]",In Vivo Antitumor Activity ILS (increase in lifespan),ip L1210 leukemia,88%
same,MTD,[1],15 mg/kg
same,IC50,L1210 leukemia cells; [9],65 nM
"CC[C@@]1(O)C(=O)OCc2c1cc1n(c2=O)Cc2cc3cc(C#N)ccc3nc2-1 [16S, 10-Cyanocamptothecin]",In Vivo Antitumor Activity ILS (increase in lifespan),ip L1210 leukemia,100%
same,MTD,[1],3 mg/kg
same,IC50,L1210 leukemia cells; [9],80 nM
"CC[C@@]1(O)C(=O)OCc2c1cc1n(c2=O)Cc2cc3c(CC#N)c(O)ccc3nc2-1 [17S, (20S) 10-Hydroxy-9-cyanomethylcamptothecin]",In Vivo Antitumor Activity ILS (increase in lifespan),ip L1210 leukemia,> 200%
same,MTD,[1],12 mg/kg
same,IC50,L1210 leukemia cells; [9],400 nM
"CC[C@@]1(O)C(=O)OCc2c1cc1n(c2=O)Cc2cc3c(CN4CCOCC4)cccc3nc2-1 [18S, (20S) 9-Morpholinomethylcamptothecin]",In Vivo Antitumor Activity ILS (increase in lifespan),ip L1210 leukemia,144%
same,MTD,[1],13 mg/kg
same,IC50,L1210 leukemia cells; [9],690 nM
"CC[C@@]1(O)C(=O)OCc2c1cc1n(c2=O)Cc2cc3cc(CN)ccc3nc2-1 [20S, (20S) 10-Aminomethylcamptothecin Acetate salt]",In Vivo Antitumor Activity ILS (increase in lifespan),ip L1210 leukemia,112%
same,MTD,[1],92 mg/kg
same,IC50,L1210 leukemia cells; [9],90 nM
"CC[C@@]1(O)C(=O)OCc2c1cc1n(c2=O)Cc2cc3c(CCN)c(O)ccc3nc2-1 [22S, (20S) 10-Hydroxy-9-aminoethylcamptothecin Acetate Salt]",In Vivo Antitumor Activity ILS (increase in lifespan),ip L1210 leukemia,75%
same,MTD,[1],100 mg/kg
same,IC50,L1210 leukemia cells; [9],360 nM
CC[C@@]1(O)C(=O)OCc2c1cc1n(c2=O)Cc2cc3ccccc3nc2-1 [Camptothecin],Increase in Lifespan (ILS) or Inhibition of Tumor Growth (TGI),iv P388 leukemia,75 % ILS
same,Increase in Lifespan (ILS) or Inhibition of Tumor Growth (TGI),[2],68 % ILS
same,Increase in Lifespan (ILS) or Inhibition of Tumor Growth (TGI),sc B16 melanoma,78 % TGI
same,Increase in Lifespan (ILS) or Inhibition of Tumor Growth (TGI),ip P388 leukemia,Curative
same,Increase in Lifespan (ILS) or Inhibition of Tumor Growth (TGI),[7],100 % TGI
same,Increase in Lifespan (ILS) or Inhibition of Tumor Growth (TGI),sc M5076 sarcoma,100 % TGI
same,Increase in Lifespan (ILS) or Inhibition of Tumor Growth (TGI),ip colon carcinoma 26,50 % ILS
same,Increase in Lifespan (ILS) or Inhibition of Tumor Growth (TGI),ip L1210 leukemia,172 % ILS
same,Increase in Lifespan (ILS) or Inhibition of Tumor Growth (TGI),ip B16 melanoma,36 % ILS
same,Increase in Lifespan (ILS) or Inhibition of Tumor Growth (TGI),[3],63 % TGI
same,Increase in Lifespan (ILS) or Inhibition of Tumor Growth (TGI),[4],90 % TGI
same,solubility in water / aqueous vehicles,Aqueous solubility,insolubility in aqueous vehicles
same,Increase in Lifespan (ILS) or Inhibition of Tumor Growth (TGI),iv L1210 leukemia,136 % ILS
same,Increase in Lifespan (ILS) or Inhibition of Tumor Growth (TGI),sc ADJ-PC6 plasmacytoma,100 % TGI
same,Increase in Lifespan (ILS) or Inhibition of Tumor Growth (TGI),[5],99 % TGI
same,Increase in Lifespan (ILS) or Inhibition of Tumor Growth (TGI),[8],75 % TGI
same,Increase in Lifespan (ILS) or Inhibition of Tumor Growth (TGI),sc Lewis lung carcinoma,92 % TGI
same,Increase in Lifespan (ILS) or Inhibition of Tumor Growth (TGI),sc colon carcinoma 26,66 % TGI
same,Increase in Lifespan (ILS) or Inhibition of Tumor Growth (TGI),ip M5076 sarcoma,81 % ILS

# Reference: patent publication US5004758A, “Water soluble camptothecin analogs useful for inhibiting the growth of animal tumor cells” (priority 1988, dated 1991)
